Key:
ABUTH [1] = assay: Pre-emergence herbicidal action against ABUTH; type: in vivo, Abutilon theophrasti; conditions: for Pre-emergence action against ABUTH (herbicidal activity): 80 g/ha, scored visually after 3 weeks vs untreated controls (100% = plants have died, 0% = like control plants); for Pre-emergence action against ABUTH (herbicidal activity in percent): dosage 20 g/ha, scored visually after 3 weeks vs untreated controls, 100% = plants have died, 0% = like control plants
Method in brief: (§1)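 Herbicidal effect was assessed 3 weeks after treatment by visual comparison with untreated controls, 100% denoting dead plants. Aqueous WP or EC preparations had been applied at 600 to 800 l/ha with 0.2% wetting agent to the soil covering freshly sown seeds.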

ALOMY [2] = assay: Pre-emergence herbicidal action against ALOMY; type: in vivo, Alopecurus myosuroides; conditions: for Pre-emergence action against ALOMY (herbicidal activity): 80 g/ha, scored visually after 3 weeks vs untreated controls (100% = plants have died, 0% = like control plants)
Method in brief: as §1

AMARE [3] = assay: Pre-emergence herbicidal action against AMARE; type: in vivo, Amaranthus retroflexus
Method in brief: as §1

AVEFA = assay: Pre-emergence herbicidal action against AVEFA; type: in vivo, Avena fatua; conditions: for Pre-emergence action against AVEFA in %: 80 g/ha
Method in brief: as §1

ECHCG [4] = assay: Pre-emergence herbicidal action against ECHCG; type: in vivo, Echinochloa crus-galli
Method in brief: as §1

LOLRI = assay: Pre-emergence herbicidal action against LOLRI; type: in vivo, Lolium rigidum; conditions: 80 g/ha
Method in brief: as §1

MATIN [5] = assay: Pre-emergence herbicidal action against MATIN; type: in vivo, Matricaria inodora
Method in brief: as §1

PHBPU [6] = assay: Pre-emergence herbicidal action against PHBPU; type: in vivo, Pharbitis purpurea
Method in brief: as §1

POLCO = assay: Pre-emergence herbicidal action against POLCO; type: in vivo, Polygonum convolvulus; conditions: dosage 80 g/ha
Method in brief: as §1

SETVI [7] = assay: Pre-emergence herbicidal action against SETVI; type: in vivo, Setaria viridis
Method in brief: as §1

VERPE [8] = assay: Pre-emergence herbicidal action against VERPE; type: in vivo, Veronica persica; conditions: dosage 80 g/ha
Method in brief: as §1

VIOTR [9] = assay: Pre-emergence herbicidal action against VIOTR; type: in vivo, Viola tricolor
Method in brief: as §1

DIGSA [10] = assay: Pre-emergence herbicidal action against DIGSA; type: in vivo, Digitaria sanguinalis
Method in brief: as §1

ABUTH [11] = assay: Post-emergence herbicidal action against ABUTH; type: in vivo, Abutilon theophrasti; conditions: visual assessment about 3 weeks after treatment vs untreated controls
Method in brief: (§2)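 Herbicidal effect was scored visually in percent after about 3 weeks in the greenhouse. Plants had been raised in sandy loam and treated post-emergence at the one-leaf stage with formulated compound at 600 to 800 l/ha water plus 0.2% wetting agent.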

AMARE [12] = assay: Post-emergence herbicidal action against AMARE; type: in vivo, Amaranthus retroflexus; conditions: 20 g/ha, visual assessment about 3 weeks after treatment, 100% = plants have died, 0% = like control plants
Method in brief: as §2

ECHCG [13] = assay: Post-emergence herbicidal action against ECHCG; type: in vivo, Echinochloa crus-galli
Method in brief: as §2

MATIN [14] = assay: Post-emergence herbicidal action against MATIN; type: in vivo, Matricaria inodora; conditions: dosage 20 g/ha
Method in brief: as §2

PHBPU [15] = assay: Post-emergence herbicidal action against PHBPU; type: in vivo, Pharbitis purpurea
Method in brief: as §2

SETVI [16] = assay: Post-emergence herbicidal action against SETVI; type: in vivo, Setaria viridis
Method in brief: as §2

VERPE [17] = assay: Post-emergence herbicidal action against VERPE; type: in vivo, Veronica persica
Method in brief: as §2

VIOTR [18] = assay: Post-emergence herbicidal action against VIOTR; type: in vivo, Viola tricolor
Method in brief: as §2

DIGSA [19] = assay: Post-emergence herbicidal action against DIGSA; type: in vivo, Digitaria sanguinalis
Method in brief: as §2

ALOMY [20] = assay: Post-emergence herbicidal action against ALOMY; type: in vivo, Alopecurus myosuroides; conditions: visual assessment about 3 weeks after treatment vs untreated controls
Method in brief: as §2

[21] = 20 g/ha, scored visually after 3 weeks vs untreated controls, 100% = plants have died, 0% = like control plants
[22] = 80 g/ha, scored visually after 3 weeks vs untreated controls (100% = plants have died, 0% = like control plants)
[23] = 20 g/ha, scored visually after 3 weeks, 100% = plants have died, 0% = like control plants

Cn1nnnc1NC(=O)c1ccc(C(F)(F)F)c(C(=O)NCC2CC2)c1C1CC1 [Example 1-289]
100%: Pre-emergence action against ABUTH (herbicidal activity) (ABUTH [1]) | Pre-emergence action against ABUTH (herbicidal activity in percent) (ABUTH [1]) | Pre-emergence action against AMARE in % (AMARE [3]; [22]) | Pre-emergence action against ECHCG in % (ECHCG [4]; 80 g/ha) | Pre-emergence action against MATIN in % (MATIN [5]; dosage 80 g/ha) | Pre-emergence action against VERPE in % (VERPE [8]) | Pre-emergence action against VIOTR in % (VIOTR [9]; dosage 20 g/ha) | Pre-emergence action against VIOTR in % (VIOTR [9]; dosage 80 g/ha) | Pre-emergence action against DIGSA in % (DIGSA [10]; dosage 20 g/ha) | Pre-emergence action against DIGSA in % (DIGSA [10]; dosage 80 g/ha)
80%: Pre-emergence action against AVEFA in % (AVEFA) | Pre-emergence action against ECHCG in % (ECHCG [4]; 20 g/ha) | Pre-emergence action against LOLRI in % (LOLRI) | Pre-emergence action against PHBPU in % (PHBPU [6]; dosage 80 g/ha) | Pre-emergence action against POLCO in % (POLCO) | Pre-emergence action against SETVI in % (SETVI [7]; dosage 80 g/ha) | Post-emergence action against ABUTH in % (ABUTH [11]; dosage 5 g/ha) | Post-emergence action against ABUTH in % (ABUTH [11]; dosage 20 g/ha) | Post-emergence action against ECHCG in % (ECHCG [13]; dosage 20 g/ha) | Post-emergence action against MATIN in % (MATIN [14]) | Post-emergence action against PHBPU in % (PHBPU [15]; dosage 5 g/ha) | Post-emergence action against SETVI in % (SETVI [16]; dosage 5 g/ha) | Post-emergence action against VERPE in % (VERPE [17]; 5 g/ha) | Post-emergence action against VIOTR in % (VIOTR [18]; 5 g/ha)
90%: Pre-emergence action against ALOMY (herbicidal activity) (ALOMY [2]) | Pre-emergence action against AMARE in % (AMARE [3]; [21]) | Pre-emergence action against MATIN in % (MATIN [5]; dosage 20 g/ha) | Post-emergence action at 20 g/ha against AMARE in % (AMARE [12]) | Post-emergence action against PHBPU in % (PHBPU [15]; dosage 20 g/ha) | Post-emergence action against SETVI in % (SETVI [16]; dosage 20 g/ha) | Post-emergence action against VERPE in % (VERPE [17]; 20 g/ha) | Post-emergence action against VIOTR in % (VIOTR [18]; 20 g/ha) | Post-emergence action against DIGSA in % (DIGSA [19]; 5 g/ha) | Post-emergence action against DIGSA (DIGSA [19]; 20 g/ha)

CCn1nnnc1NC(=O)c1ccc(C(F)(F)F)c(C(=O)NC2CCC2)c1C [Example 2-42]
90%: Pre-emergence action against ALOMY (herbicidal activity) (ALOMY [2]) | Pre-emergence action against AVEFA in % (AVEFA) | Pre-emergence action against ECHCG in % (ECHCG [4]; 20 g/ha) | Pre-emergence action against PHBPU in % (PHBPU [6]; dosage 80 g/ha) | Pre-emergence action against VERPE in % (VERPE [8]) | Post-emergence action against ABUTH in % (ABUTH [11]; dosage 20 g/ha) | Post-emergence action against ALOMY in % (ALOMY [20]; dosage 5 g/ha) | Post-emergence action against ECHCG in % (ECHCG [13]; dosage 5 g/ha) | Post-emergence action against PHBPU in % (PHBPU [15]; dosage 5 g/ha) | Post-emergence action against PHBPU in % (PHBPU [15]; dosage 20 g/ha) | Post-emergence action against VERPE in % (VERPE [17]; 20 g/ha)
80%: Pre-emergence action against ALOMY (ALOMY [2]; [23]) | Pre-emergence action against AVEFA (AVEFA; [23]) | Pre-emergence action against LOLRI in % (LOLRI) | Pre-emergence action against PHBPU in % (PHBPU [6]; dosage 20 g/ha) | Pre-emergence action against POLCO in % (POLCO) | Pre-emergence action against SETVI in % (SETVI [7]; dosage 20 g/ha) | Post-emergence action against ABUTH in % (ABUTH [11]; dosage 5 g/ha) | Post-emergence action against MATIN in % (MATIN [14])
100%: Pre-emergence action against ABUTH (herbicidal activity) (ABUTH [1]) | Pre-emergence action against ABUTH (herbicidal activity in percent) (ABUTH [1]) | Pre-emergence action against AMARE in % (AMARE [3]; [21]) | Pre-emergence action against AMARE in % (AMARE [3]; [22]) | Pre-emergence action against ECHCG in % (ECHCG [4]; 80 g/ha) | Pre-emergence action against MATIN in % (MATIN [5]; dosage 20 g/ha) | Pre-emergence action against MATIN in % (MATIN [5]; dosage 80 g/ha) | Pre-emergence action against SETVI in % (SETVI [7]; dosage 80 g/ha) | Pre-emergence action against VIOTR in % (VIOTR [9]; dosage 20 g/ha) | Pre-emergence action against VIOTR in % (VIOTR [9]; dosage 80 g/ha) | Pre-emergence action against DIGSA in % (DIGSA [10]; dosage 20 g/ha) | Pre-emergence action against DIGSA in % (DIGSA [10]; dosage 80 g/ha) | Post-emergence action against ALOMY in % (ALOMY [20]; dosage 20 g/ha) | Post-emergence action at 20 g/ha against AMARE in % (AMARE [12]) | Post-emergence action against ECHCG in % (ECHCG [13]; dosage 20 g/ha)
